Measurements reported in paper PMC8139662 (Journal of Virology, 2021).

Tested on: polarized human airway epithelial cultures (HAEC)

Structure (SMILES): COc1cccc2[nH]c(C(=O)N[C@@H](CC(C)C)C(=O)N[C@@H](C[C@@H]3CCNC3=O)C(=O)CO)cc12 [PF-00835231]
- effect on transepithelial resistance (TEER) over time: we did not observe this trend
